Values after ≈ are worked out from the molar mass of the structure shown.
Assays:
E. coli [1] = assay: AST without DL (division feature only, cell counting from the videos); assay type: cell-based, Escherichia coli (ATCC 43888); conditions: for MIC: Escherichia coli
Method: To further validate the DLVM-AST method, we counted the total number of bacteria cells (Ntotal) from the videos (as shown in FIG. 9), and plotted Ntotal (mean±std) vs. time for PMB at various concentrations (as shown in FIG. 11C).
Growth and preparation of E. coli. Frozen E. coli strains were thawed, and 50 μL of which were cultured in 5 mL of Luria-Bertani (LB) medium (Per liter: 10 g peptone 140, 5 g yeast extract, and 5 g sodium chloride) at 37° C. and 150 rpm for 16 hours. Saturated cultures in the volume of 20 μL were diluted into 5 mL of fresh LB medium, and growth continued at 37° C. with 150 rpm for 1 hour to attain a logarithmic phase of growth. Bacterial cells were collected by centrifugation at 450 g for 5 min and suspended in urine to a concentration of 2×10^7 cells/mL^36. This concentration was determined by measuring the extinction coefficients for E. coli from the Optical Density (OD600) reading taken with a spectrophototometer (NanoDrop™ 2000/2000c Spectrophotometers, Thermo Scientific). The calibration factor for bacterial cell cultures estimation was 8×10^8 cells/mL per OD600 unit. Before use, the bacteria-spiked urine samples were filtered using a 5 μm syringe filter (EMD Millipore) to remove large particles.
AST with video microscopy. The microfluidic chip was placed on an inverted microscope (Olympus IX-81) with a 40× phase contrast objective lens and imaged with a CCD camera (Pike-032B, Allied Vision Technologies, Newburyport, Mass.). A 200-μL bacterial suspension (2×10^7 cells/mL) was mixed with an equal volume of antibiotic solution for each antibiotic concentration or an equal volume of water as a control experiment. These mixed solutions were injected into different microfluidic channels simultaneously. After the microfluidic channels were fulfilled with these mixed solutions, two microfluidic valves of each detection channel were closed simultaneously to generate a stable microenvironment. Videos of the bacterial cells were recorded at 100 frames per second (fps) immediately (0 min) and after every 30 min. Each video lasted for 30 seconds. The raw images were batch-converted to 16-bit tiff format using a Matlab program and pre-processed to minimize background artifacts before being processed with the DL model. To include enough cells for reliable results, we integrated bacterial cells from three videos recorded from different experiments. Each experiment was repeated independently for three times.

E. coli [2] = assay: Deep learning video microscopy-based antimicrobial susceptibility testing (DLVM-AST); assay type: cell-based, Escherichia coli (ATCC 43888); conditions: for MIC: Escherichia coli
E. coli [3] = assay: microbe, parasite or virus in culture; assay type: cell-based, Escherichia coli (ATCC 43888); conditions: broth macrodilution, 37° C., triplicate; for MIC: Escherichia coli
Method: AST with broth macrodilution (BMD) method. For comparison, AST was also performed by the BMD method (CLSI gold standard^35). The adjusted inoculum E. coli suspension is diluted in Cation-adjusted Mueller Hinton Broth (CAMHB, Sigma-Aldrich) and the concentration of E. coli cell cultures are adjusted to 1×10^6 cells/mL based on UV-Vis spectrophotometer (NanoDrop 2000, Thermo Fisher) readings at OD600. […] After inoculation, each tube contains approximately 5×10^5 cells/mL. […] This test was performed in triplicate.

E. coli [4] = assay: Phenotypic features (motion, morphology) in recorded bacteria videos in presence of antibiotics; assay type: cell-based, Escherichia coli; conditions: 3 hours
Method: Referring now simultaneously to FIG. 8A-FIG. 8C, phenotypic features in the recorded bacteria videos in the presence and absence of antibiotics are shown. […] Concentrations of PMB and aztreonam are 8 μg/mL and 0.5 μg/mL, respectively.
In principle, the raw bacterial videos could be used as inputs for a DL model, but the computational expense is impractical. In fact, few DL applications could use videos as input data directly even with high performance super-computers.^30-32 To overcome this difficulty, a method to compress the raw videos into static images without losing key phenotypic features was developed as described further below. This approach imitates human vision, which pre-processes raw images in the vision system to reduce complexity before passing them to the brain. The key phenotypic features in the video include cell division, motion, and morphology. […] Cell motion and morphology may also change when exposing the cell to antibiotics, thus serving as additional phenotypic features for AST. […]
AST with video microscopy. […] Videos of the bacterial cells were recorded at 100 frames per second (fps) immediately (0 min) and after every 30 min. […] To include enough cells for reliable results, we integrated bacterial cells from three videos recorded from different experiments. […]

[5] = tested on: E. coli O157 model strain; assay: Susceptibility test with 40× optical microscope and imaging-processing algorithm tracking motion and growth; assay type: cell-based; conditions: @30 mins; concentrated bacterial samples
From the text: The inventors here have tested the susceptibility of E. coli O157 model strain to polymysin B (PMB, an antibiotic) using a 40× optical microscope. The individual bacterial cells 12 were identified, and their motions and growth were tracked using an imaging-processing algorithm. Inhibition curves were derived from the tracking data as shown below with respect to FIG. 4B and FIG. 4C. […] However, the experiment used concentrated bacterial samples, because the microscope has a small viewing size.

[6] = division feature only, triplicate
[7] = E. coli spiked in urine, triplicate

Row | Compound | MIC (E. coli [1]; [6]) [µg/mL] | MIC (E. coli [2]; [7]) [µg/mL] | MIC (E. coli [3]) [µg/mL] | also measured
1 | CC1(C)S[C@@H]2[C@H](NC(=O)[C@H](N)c3ccccc3)C(=O)N2[C@H]1C(=O)O [Ampicillin, ampicillin] | 2 (≈ 5.72 µM) | 2 (≈ 5.72 µM) | 2 (≈ 5.72 µM) | –
2 | C[C@H]1[C@H](NC(=O)/C(=N\OC(C)(C)C(=O)O)c2csc(N)n2)C(=O)N1S(=O)(=O)O [Aztreonam, aztreonam] | 0.12 (≈ 0.276 µM) | 0.12 (≈ 0.276 µM) | 0.12 (≈ 0.276 µM) | effect on bacterial morphology (E. coli [4]; aztreonam 0.5 μg/mL): caused the bacterial cells to elongate
3 | O=C(O)c1cn(C2CC2)c2cc(N3CCNCC3)c(F)cc2c1=O [Ciprofloxacin, ciprofloxacin] | 0.015 to 0.03 (≈ 0.0453 to 0.0905 µM) | – | – | –
4 | [H]/N=C(/N)N[C@H]1[C@H](O)[C@@H](O)[C@H](O[C@@H]2O[C@@H](C)[C@](O)(C=O)[C@H]2O[C@@H]2O[C@@H](CO)[C@H](O)[C@@H](O)[C@@H]2NC)[C@@H](N/C(N)=N\[H])[C@@H]1O [Streptomycin, streptomycin] | 4 (≈ 6.88 µM) | 4 (≈ 6.88 µM) | 4 (≈ 6.88 µM) | –
5 | polymyxin B | – | – | – | MIC from Ntotal vs. antibiotic concentration (E. coli [1]; at 180 minutes, cell counting): ~2 µg/mL; MIC, AST Without DL (E. coli [1]; [6]): 1 to 2 µg/mL; MIC, DLVM-AST (E. coli [2]; [7]): 2 µg/mL; MIC (concentration at which 90% of the bacterial cells are inhibited) (E. coli [2]; obtained 30 minutes after antibiotic treatment): 2 µg/mL; effect on bacterial motion (E. coli [4]; PMB 8 μg/mL): decreased bacterial motion; MIC [5]: 2 µg/mL; MIC, BMD (E. coli [3]): 2 µg/mL

— patent publication US11834696B2, “Antimicrobial susceptibility testing with large-volume light scattering imaging and deep learning video microscopy” (Arizona Board of Regents on behalf of Arizona State …, priority 2017, dated 2023)
